Results: publication doi:10.1101/2020.11.21.391136v1 (biorxiv, 2020)
Residue numbers refer to the chain shown, from its start. Blank lines part the entries; values can stand above or below the compound they belong to.

Legend:
A3R (Hs-A3R) [1] = target: T1, A3R (Hs-A3R) (Homo sapiens, UniProt P0DMS8, L264M); experiment: cell-based; set-up: species or system HEK293A
T1 sequence (P0DMS8 1-318 L264M): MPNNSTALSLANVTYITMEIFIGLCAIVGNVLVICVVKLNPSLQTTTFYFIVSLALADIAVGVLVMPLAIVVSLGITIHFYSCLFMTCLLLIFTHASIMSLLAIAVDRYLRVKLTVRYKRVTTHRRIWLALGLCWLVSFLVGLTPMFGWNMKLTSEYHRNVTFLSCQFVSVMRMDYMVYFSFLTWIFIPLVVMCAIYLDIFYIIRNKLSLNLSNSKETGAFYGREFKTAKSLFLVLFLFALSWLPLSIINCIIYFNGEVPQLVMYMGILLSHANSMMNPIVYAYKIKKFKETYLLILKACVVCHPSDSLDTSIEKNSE

A3R (Hs-A3R) [2] = target: T2, A3R (Hs-A3R) (Homo sapiens, UniProt P0DMS8, I253T); experiment: cell-based; set-up: species or system HEK293A
T2 sequence (P0DMS8 1-318 I253T): T1 sequence (P0DMS8 1-318 L264M) with I253T, M264L

A3R (Hs-A3R) [3] = target: T3, A3R (Hs-A3R) (Homo sapiens, UniProt P0DMS8); experiment: cell-based; set-up: species or system HEK293A
T3 sequence (P0DMS8 1-318): T1 sequence (P0DMS8 1-318 L264M) with M264L

A2BR [4] = target: T4, A2BR (Homo sapiens, UniProt P29275); experiment: cell-based; set-up: species or system HEK293A
T4 sequence (P29275 1-332): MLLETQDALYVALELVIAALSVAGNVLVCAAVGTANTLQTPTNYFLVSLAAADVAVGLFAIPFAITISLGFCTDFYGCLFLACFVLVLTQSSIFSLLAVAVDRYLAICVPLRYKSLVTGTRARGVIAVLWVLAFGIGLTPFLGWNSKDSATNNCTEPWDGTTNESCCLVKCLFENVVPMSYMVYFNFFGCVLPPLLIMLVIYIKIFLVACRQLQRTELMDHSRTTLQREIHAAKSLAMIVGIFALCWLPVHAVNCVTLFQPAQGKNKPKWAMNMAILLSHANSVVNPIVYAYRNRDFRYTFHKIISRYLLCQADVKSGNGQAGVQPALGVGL

A3R (Hs-A3R) [5] = target: T5, A3R (Hs-A3R) (Homo sapiens, UniProt P0DMS8, V169E); experiment: cell-based; set-up: species or system HEK293A
T5 sequence (P0DMS8 1-318 V169E): T1 sequence (P0DMS8 1-318 L264M) with V169E, M264L

A3R (Hs-A3R) L264T [6] = target: T6, A3R (Hs-A3R) L264T (Homo sapiens, UniProt P0DMS8, L264T); experiment: cell-based; set-up: species or system HEK293A
T6 sequence (P0DMS8 1-318 L264T): T1 sequence (P0DMS8 1-318 L264M) with M264T

A2AR [7] = target: A2AR (Homo sapiens, UniProt P29274, E169V); set-up: species or system HEK293A; conditions: % AP-TGFα release, not normalised to a reference agonist
Ss-A3R = target: T7, Ss-A3R (Sus scrofa, UniProt F1SBN8); experiment: TGF-alpha shedding assay, HEK293A; format: cell-based
T7 sequence (F1SBN8 1-318): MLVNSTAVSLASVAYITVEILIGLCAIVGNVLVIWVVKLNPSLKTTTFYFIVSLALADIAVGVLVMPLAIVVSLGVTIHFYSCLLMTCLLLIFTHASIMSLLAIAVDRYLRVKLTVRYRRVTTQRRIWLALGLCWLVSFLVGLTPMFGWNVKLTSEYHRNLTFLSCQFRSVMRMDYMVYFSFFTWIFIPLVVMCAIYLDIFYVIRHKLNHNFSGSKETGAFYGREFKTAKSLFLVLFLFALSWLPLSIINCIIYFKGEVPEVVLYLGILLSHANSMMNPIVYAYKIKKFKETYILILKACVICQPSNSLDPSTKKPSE

A1R T270L [8] = target: T8, A1R T270L (Homo sapiens, UniProt P30542, T270L); experiment: cell-based; set-up: species or system HEK293A
T8 sequence (P30542 1-326 T270L): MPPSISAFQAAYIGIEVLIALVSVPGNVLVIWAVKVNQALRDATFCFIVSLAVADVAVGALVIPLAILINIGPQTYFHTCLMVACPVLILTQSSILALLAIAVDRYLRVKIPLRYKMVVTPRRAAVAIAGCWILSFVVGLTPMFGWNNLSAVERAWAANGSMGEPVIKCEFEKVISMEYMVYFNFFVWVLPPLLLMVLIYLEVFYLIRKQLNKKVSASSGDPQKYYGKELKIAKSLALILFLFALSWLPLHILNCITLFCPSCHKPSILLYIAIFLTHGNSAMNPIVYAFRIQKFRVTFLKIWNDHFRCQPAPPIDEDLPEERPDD

A2AR [9] = target: T9, A2AR (Homo sapiens, UniProt P29274); experiment: cell-based; set-up: species or system HEK293A; conditions: HEK293-A, read-out: Emax (%)
A2AR [10] = target: T9, A2AR; experiment: TGF-alpha shedding assay, HEK293A; format: cell-based
A1R [11] = target: T10, A1R (Homo sapiens, UniProt P30542, E172V); experiment: cell-based; set-up: species or system HEK293A; conditions: HEK293-A, read-out: Emax (%)
T10 sequence (P30542 1-326 E172V): T8 sequence (P30542 1-326 T270L) with E172V, L270T

A3R (Hs-A3R) L264T [12] = target: T6, A3R (Hs-A3R) L264T; experiment: cell-based; set-up: species or system HEK293A; remark: listed apart in the source
A1R [13] = target: T11, A1R (Homo sapiens, UniProt P30542); set-up: species or system HEK293A; conditions: % AP-TGFα release, not normalised to a reference agonist
T11 sequence (P30542 1-326): T8 sequence (P30542 1-326 T270L) with L270T

A2AR [14] = target: A2AR (Homo sapiens, UniProt P29274, T256I); experiment: cell-based; set-up: species or system HEK293A; conditions: HEK293-A, read-out: Emax (%)
A1R [15] = target: T12, A1R (Homo sapiens, UniProt P30542, T257I); experiment: cell-based; set-up: species or system HEK293A; conditions: HEK293-A, read-out: Emax (%)
T12 sequence (P30542 1-326 T257I): T8 sequence (P30542 1-326 T270L) with T257I, L270T

A1R [16] = target: T11, A1R; experiment: TGF-alpha shedding assay, HEK293A; format: cell-based
A2BR [17] = target: T4, A2BR; experiment: TGF-alpha shedding assay, HEK293A; format: cell-based
A2AR [18] = target: A2AR (Homo sapiens, UniProt P29274, M270L); experiment: cell-based; set-up: species or system HEK293A; conditions: HEK293-A, read-out: Emax (%)
A1R T270L [19] = target: T8, A1R T270L; experiment: cell-based; set-up: species or system HEK293A; conditions: HEK293-A, read-out: Emax (%)
[20] = % AP-TGFα release, not normalised to a reference agonist, agonist

T9 sequence (P29274 whole entry): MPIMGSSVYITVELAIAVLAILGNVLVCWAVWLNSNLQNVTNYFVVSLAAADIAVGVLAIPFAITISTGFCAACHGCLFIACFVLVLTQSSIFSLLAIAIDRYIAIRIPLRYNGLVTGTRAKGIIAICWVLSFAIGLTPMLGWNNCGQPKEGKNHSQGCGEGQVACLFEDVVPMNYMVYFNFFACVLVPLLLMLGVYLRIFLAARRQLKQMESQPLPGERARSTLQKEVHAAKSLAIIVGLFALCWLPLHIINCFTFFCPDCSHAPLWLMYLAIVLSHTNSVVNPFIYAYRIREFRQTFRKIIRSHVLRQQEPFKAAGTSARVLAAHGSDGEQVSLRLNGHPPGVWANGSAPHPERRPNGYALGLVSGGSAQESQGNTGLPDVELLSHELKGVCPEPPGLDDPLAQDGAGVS
A2AR (Homo sapiens, UniProt P29274, T256I), sequence (P29274 whole entry T256I): as the sequence (P29274 whole entry) above, with T256I counted along it
A2AR (Homo sapiens, UniProt P29274, E169V), sequence (P29274 whole entry E169V): as the sequence (P29274 whole entry) above, with E169V counted along it
A2AR (Homo sapiens, UniProt P29274, M270L), sequence (P29274 whole entry M270L): as the sequence (P29274 whole entry) above, with M270L counted along it

Emax (%) (A3R (Hs-A3R) [1]; [20]): 39 ± 2.6%
Emax (%) (A3R (Hs-A3R) [2]; [20]): 37 ± 2.0%
Emax (%) (A3R (Hs-A3R) [3]; [20]): 39 ± 0.82%
Emax (%) (A2BR [4]; [20]): 57 ± 1.2%
Emax (%) (A3R (Hs-A3R) [5]; [20]): 14 ± 4.1%
Emax (%) (A3R (Hs-A3R) L264T [6]; [20]): 22 ± 0.84%
Compound: Nc1ncnc2c1ncn2[C@@H]1O[C@H](CO)[C@@H](O)[C@H]1O [adenosine]

Emax (%) (A2AR [7]): 29 ± 2.0%
EC50 (Ss-A3R): 39 ± 3.1 nM
Emax (A3R (Hs-A3R) [1]; HEK293-A, read-out: Emax (%)): 43 ± 1.7%
EC50 (A1R T270L [8]): 540 ± 62 nM
Emax (A2AR [9]): 17 ± 0.57%
EC50 (A2AR [10]): 13000 ± 1100 nM
Emax (A1R [11]): 32 ± 1.9%
Emax (A3R (Hs-A3R) [2]; HEK293-A, read-out: Emax (%)): 41 ± 2.2%
Emax (A3R (Hs-A3R) [3]; HEK293-A, read-out: Emax (%)): 43 ± 2.1%
EC50 (A3R (Hs-A3R) L264T [12]): 6.4 ± 0.44 nM
Emax (%) (A1R [13]): 17 ± 2.2%
Emax (A2BR [4]; HEK293-A, read-out: Emax (%)): 76 ± 4.7%
Emax (A2AR [14]): 30 ± 1.7%
Emax (A1R [15]): 42 ± 1.2%
Emax (A3R (Hs-A3R) [5]; HEK293-A, read-out: Emax (%)): 22 ± 2%
EC50 (A1R [16]): 840 ± 130 nM
Emax (A3R (Hs-A3R) L264T [6]; HEK293-A, read-out: Emax (%)): 27 ± 2.2%
EC50 (A2BR [17]): 51000 ± 6400 nM
Emax (A2AR [18]): 3.5 ± 0.68%
Emax (A1R T270L [19]): 15 ± 1.6%
Compound: CNc1ncnc2c1ncn2[C@@H]1O[C@H](CO)[C@@H](O)[C@H]1O [m^6A]
